# Laboratory results from PMC5332327 (Journal of the American Chemical Society, 2017).
# Target: Nan[KS1][AT1] (Streptomyces nanchangensis, UniProt Q7WTF5)
# Test: coupled KS-KR assay, chiral GC-MS of diketide methyl ester
# Type: biochemical
# Conditions: holo-NanACP1, NADPH, KR domain, pH 7.2
# Nan[KS1][AT1], sequence (Q7WTF5 1029-1965): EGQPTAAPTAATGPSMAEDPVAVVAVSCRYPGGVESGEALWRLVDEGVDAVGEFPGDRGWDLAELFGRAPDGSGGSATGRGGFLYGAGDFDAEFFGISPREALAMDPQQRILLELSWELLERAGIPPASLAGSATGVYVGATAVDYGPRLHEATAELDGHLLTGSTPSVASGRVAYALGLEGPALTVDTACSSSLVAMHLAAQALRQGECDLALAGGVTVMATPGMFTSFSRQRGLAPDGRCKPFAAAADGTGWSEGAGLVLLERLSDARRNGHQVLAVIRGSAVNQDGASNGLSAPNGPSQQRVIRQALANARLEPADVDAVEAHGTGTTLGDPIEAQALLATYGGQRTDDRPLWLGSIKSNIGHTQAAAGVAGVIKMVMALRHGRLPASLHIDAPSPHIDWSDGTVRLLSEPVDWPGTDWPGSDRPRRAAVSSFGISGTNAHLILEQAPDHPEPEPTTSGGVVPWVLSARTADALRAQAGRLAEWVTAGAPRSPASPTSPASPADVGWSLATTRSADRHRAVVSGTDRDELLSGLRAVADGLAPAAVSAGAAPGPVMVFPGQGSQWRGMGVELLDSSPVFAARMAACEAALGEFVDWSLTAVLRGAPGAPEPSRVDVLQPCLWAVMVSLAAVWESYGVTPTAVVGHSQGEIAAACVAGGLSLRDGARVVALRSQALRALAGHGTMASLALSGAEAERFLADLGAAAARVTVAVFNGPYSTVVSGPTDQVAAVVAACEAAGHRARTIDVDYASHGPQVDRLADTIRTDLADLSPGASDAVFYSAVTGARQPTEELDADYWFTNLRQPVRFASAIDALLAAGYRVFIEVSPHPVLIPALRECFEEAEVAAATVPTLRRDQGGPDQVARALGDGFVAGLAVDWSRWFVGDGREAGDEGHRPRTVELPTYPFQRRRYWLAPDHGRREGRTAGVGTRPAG
compound,measurement,setting,value
CC(C(=O)O)C(=O)SCCNC(=O)CCNC(=O)[C@H](O)C(C)(C)COP(=O)(O)OP(=O)(O)OC[C@H]1O[C@@H](n2cnc3c(N)ncnc32)[C@H](O)[C@@H]1OP(=O)(O)O (some centres unmarked) [methylmalonyl-CoA],"coupled KS-KR assay, chiral GC-MS of diketide methyl ester","300 uM methylmalonyl-CoA, propionyl-SNAC, extender",condensation between propionyl-SNAC and methylmalonyl-CoA catalyzed by the polyether synthase didomain Nan[KS1][AT1]
CCC(=O)SCCNC(C)=O [propionyl-SNAC],"coupled KS-KR assay, chiral GC-MS of diketide methyl ester","5 mM propionyl-SNAC, methylmalonyl-CoA, primer",condensation between propionyl-SNAC and methylmalonyl-CoA catalyzed by the polyether synthase didomain Nan[KS1][AT1]
